The values below come from US9120749B2, “Quinoline derivatives and MELK inhibitors containing the same” (ONCOTHERAPY SCIENCE, INC., priority 2010, dated 2015).

The structures appear in SMILES notation. Where a name gives a salt, the structure may show the parent alone.

The subject of test [1] is 22Rv1 cells. As to the kind of experiment: Cell-based assay: anti-proliferative activity, Cell Counting Kit-8, 72 hours (22Rv1). The settings on record: Homo sapiens. In general terms: Formazan colour is commonly taken as a measure of viable cells.
Test [2] relates to DU4475 cells. The experiment in a line: Cell-based assay: anti-proliferative activity, Cell Counting Kit-8, 72 hours (DU4475). The settings on record: Homo sapiens, DU-4475.
In test [3] the target is MELK (Homo sapiens, UniProt Q14680). The experiment in a line: Kinase assay: MELK activity, phosphorylation of FITC-labeled histone H3 peptide measured by IMAP fluorescence polarization. The test is classed as biochemical. The settings on record: MELK kinase assay, IMAP fluorescence polarization, 50 micro-M ATP; read-out: IC50 (μM) (kinase assay). The essentials: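 Compounds, serially diluted from 12.5 mM DMSO stocks to 1% final DMSO, were tested with FITC-labeled histone H3 peptide as substrate. The reaction was stopped with progressive binding solution. Fluorescence polarization was read after 0.5 hour at room temperature.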
Chain of MELK (Q14680 whole entry, looked up): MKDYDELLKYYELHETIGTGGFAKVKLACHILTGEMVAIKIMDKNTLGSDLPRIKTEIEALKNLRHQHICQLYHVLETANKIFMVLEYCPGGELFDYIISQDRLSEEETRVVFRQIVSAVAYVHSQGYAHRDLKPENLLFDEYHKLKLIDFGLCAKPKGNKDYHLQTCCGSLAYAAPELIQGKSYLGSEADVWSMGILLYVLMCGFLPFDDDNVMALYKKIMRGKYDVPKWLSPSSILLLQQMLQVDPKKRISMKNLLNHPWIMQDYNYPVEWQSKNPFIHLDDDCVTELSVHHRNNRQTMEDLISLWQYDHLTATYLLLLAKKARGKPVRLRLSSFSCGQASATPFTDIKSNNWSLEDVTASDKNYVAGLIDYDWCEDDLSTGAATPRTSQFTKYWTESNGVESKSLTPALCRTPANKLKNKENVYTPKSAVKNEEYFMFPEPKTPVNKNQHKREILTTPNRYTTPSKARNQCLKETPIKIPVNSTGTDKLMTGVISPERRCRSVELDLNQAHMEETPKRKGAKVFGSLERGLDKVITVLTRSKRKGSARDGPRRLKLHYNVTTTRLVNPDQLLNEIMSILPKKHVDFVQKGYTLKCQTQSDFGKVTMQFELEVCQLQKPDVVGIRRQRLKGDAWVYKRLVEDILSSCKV
(In fluorescence polarisation assays a small probe gives low polarisation when free and higher when bound to something large.)

Test [4] concerns T47D cells. The experiment in a line: Cell-based assay: anti-proliferative activity, Cell Counting Kit-8, 72 hours (T47D). Particulars: Homo sapiens, T47D, 72 h. In outline:
(§1)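 Anti-MELK western blot on crude lysates → MELK status per line. Cells plated 96-well, compound exposure, CCK-8 readout at 72 h; IC50 calculated.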

Test [5] has as its system HT-1197 cells. The experiment in a line: Cell-based assay: anti-proliferative activity, Cell Counting Kit-8, 72 hours (HT-1197, negative control without MELK expression). The settings on record: Homo sapiens, HT1197, 72 h, HT1197 cells (negative control), 72 hours. In outline: as §1
For test [6], the system named is A549 cells. As to the kind of experiment: Cell-based assay: anti-proliferative activity, Cell Counting Kit-8, 72 hours (A549). The settings on record: Homo sapiens, A549, 72 h, 72 hours. The essentials:
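A549 cells were seeded in 96-well plates and exposed to candidate inhibitors for 72 hours. Cell growth was then measured with Cell Counting Kit-8, and IC50 values were calculated from the resulting growth data.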

Consider `CC(=O)c1cnc2ccc(-c3cc(Cl)c(O)c(Cl)c3)cc2c1Nc1cnc(C)c(CCN2CCCC2)c1` [Example 871, 1-(6-(3,5-dichloro-4-hydroxyphenyl)-4-((6-methyl-5-(2-(pyrrolidin-1-yl)ethyl)pyridin-3-yl)amino)quinolin-3-yl)ethanone], for which the IC50 in test [1] turned out to be 0.82 µM; in test [2] it was 0.33 µM; in test [3], 0.0028 µM; in test [4] it was 1.8 µM; in test [5] it was 25 µM; in test [6] it was 0.4 µM.

In the case of `CC(=O)c1cnc2ccc(-c3cn[nH]c3)cc2c1N[C@H]1CC[C@H](CN(C)C)CC1` [Example 912, 1-(4-((1R,4R)-4-((dimethylamino)methyl)cyclohexyl)amino)-6-(1H-pyrazol-4-yl)quinolin-3-yl)ethanone hydrochloride], the IC50 in test [1] worked out at 1.7 µM; in test [2] it was 1.4 µM; in test [3] it was 0.074 µM; in test [4], 4.2 µM; in test [5] it was 3 µM; in test [6], 1.3 µM.

Turning to `CS(=O)(=O)c1cnc2ccc(-c3cc(Cl)c(O)c(Cl)c3)cc2c1Nc1ccc(N2CCCC(N)C2)nc1` (stereo not drawn) [Example 913, 4-(4-(6-(3-aminopiperidin-1-yl)pyridin-3-ylamino)-3-(methylsulfonyl)quinolin-6-yl)-2,6-dichlorophenol], the IC50 in test [1] is 0.58 µM; in test [2] it was 0.025 µM; in test [3], 0.00094 µM; in test [4] it was 0.27 µM; in test [5], 100 µM; in test [6], 2.6 µM.

As for `CN(C)CCOc1ccc(Nc2c(S(C)(=O)=O)cnc3ccc(-c4cc(F)c(O)c(Cl)c4)cc23)cn1` [Example 885, 2-chloro-4-(4-((6-(2-(dimethylamino)ethoxy)pyridin-3-yl)amino)-3-(methylsulfonyl)quinolin-6-yl)-6-fluorophenol hydrochloride], the IC50 stood at 2.5 µM in test [1]; 0.62 µM in test [2]; 0.0083 µM in test [3]; 0.7 µM in test [4]; 10 µM in test [5]; 3 µM in test [6].

In the case of `CC(=O)c1cnc2ccc(-c3cc(F)c(O)c(Cl)c3)cc2c1N[C@H]1CC[C@H](NC(=O)C(N)C(C)C)CC1` (stereo partly drawn) [Example 907], the IC50 in test [1] was determined as 0.059 µM; in test [2], 0.033 µM; in test [3] it was 0.0047 µM; in test [4], 0.016 µM; in test [5], 3.7 µM; in test [6] it was 0.18 µM.

On to `[2H]C([2H])([2H])N(C[C@H]1CC[C@H](Nc2c(C(C)=O)cnc3ccc(-c4cc(Cl)c(O)c(Cl)c4)cc23)CC1)C([2H])([2H])[2H]` [Example 864, 1-(6-(3,5-dichloro-4-hydroxyphenyl)-4-((trans-4-((dimethyl-d6-amino)methyl)cyclohexyl)amino)quinolin-3-yl)ethanone dihydrochloride], for which the IC50 in test [1] turned out to be 0.081 µM; in test [2] it was 0.043 µM; in test [3], 0.0011 µM; in test [4], 0.067 µM; in test [5], 1.3 µM; in test [6], 0.11 µM.

Regarding `CC(=O)c1cnc2ccc(-c3cc(F)c(O)c(Cl)c3)cc2c1N[C@H]1CC[C@H](C(=O)NCCN(C)C)CC1` [Example 893, (1r,4r)-4-((3-acetyl-6-(3-chloro-5-fluoro-4-hydroxyphenyl)quinolin-4-yl)amino)-N-(2-(dimethylamino)ethyl) cyclohexanecarboxamide hydrochloride], the IC50 was 1.6 µM in test [1]; 0.67 µM in test [2]; 0.0052 µM in test [3]; 0.59 µM in test [4]; 100 µM in test [5]; 100 µM in test [6].

By IC50 is commonly meant the midpoint of a concentration-inhibition curve.
